Read-outs that look alike come from different tables or passages of the source. Peptide text beside a SMILES is read from it.
Test: Solubility assessment of synthetic candidate peptides
Experimental: Candidate peptide sequences identified by LC-MS/MS were synthesized using GenScript Biotech (Nanjing, China). Peptide solubility was tested in various solvents to determine optimal conditions for functional assays. Initial screening was performed in 30 mL of inorganic salt medium with 200 mg/L L-tryptophan. A. pascens ZZ21 was inoculated at 1% (v/v), and peptides were tested at 1 ppm and 0.1 ppm. The peptides were dissolved according to their solubility profiles, with corresponding solvent controls: CK-A (1 ppm blank) and CK-B (0.1 ppm blank). Cultures were incubated at 30 °C, 250 rpm for 48 h, after which IAA levels in the supernatants were measured.
This analysis was conducted by Biotech Pack Scientific Co., Ltd. (Beijing, China).

[1] = synthetic peptide, N/A = lower than 0.1 mg/mL
[2] = synthetic peptide, ultrapure water, N/A = lower than 0.1 mg/mL

| Compound | Solubilty in 0.1 M PBS [1] | Solubilty in ultrapure water [2] | Solubilty in DMSO [1] | Solubilty in ultrapure water [mg/mL] |
| --- | --- | --- | --- | --- |
| CC(C)C[C@H](NC(=O)[C@H](CCC(=O)O)NC(=O)[C@H](Cc1ccc(O)cc1)NC(=O)[C@H](Cc1ccc(O)cc1)NC(=O)[C@@H](N)CC(C)C)C(=O)N[C@@H](C)C(=O)N[C@@H](CCCNC(=N)N)C(=O)O [Peptide P14] (H-LYYELAR-OH) | N/A (N/A indicates solubility lower than 0.1 mg/mL) | N/A (N/A indicates solubility lower than 0.1 mg/mL) | – | – |
| CC(C)[C@H](N)C(=O)N[C@H](C(=O)N[C@@H](CC(=O)O)C(=O)N[C@H](C(=O)N[C@@H](CO)C(=O)N[C@@H](CCC(=O)O)C(=O)N[C@H](C(=O)N[C@@H](Cc1ccccc1)C(=O)N[C@@H](Cc1ccccc1)C(=O)N[C@@H](CCCCN)C(=O)O)C(C)C)C(C)C)[C@@H](C)O [Peptide P28] (H-VTDVSEVFFK-OH) | N/A (N/A indicates solubility lower than 0.1 mg/mL) | N/A (N/A indicates solubility lower than 0.1 mg/mL) | – | – |
| CC(C)C[C@H](NC(=O)[C@H](C)NC(=O)[C@H](CC(N)=O)NC(=O)CN)C(=O)N[C@@H](C)C(=O)N[C@H](C(=O)N[C@@H](CCCNC(=N)N)C(=O)O)[C@@H](C)O [Peptide P1] (H-GNALATR-OH) | N/A (N/A indicates solubility lower than 0.1 mg/mL) | – | – | – |
| CC(C)C[C@H](NC(=O)CNC(=O)[C@H](CO)NC(=O)[C@@H](N)CC(=O)O)C(=O)N[C@H](C(=O)N[C@@H](CC(C)C)C(=O)N[C@@H](CCCCN)C(=O)O)C(C)C [Peptide P11] (H-DSGLVLK-OH) | N/A (N/A indicates solubility lower than 0.1 mg/mL) | – | N/A (N/A indicates solubility lower than 0.1 mg/mL) | – |
| CC(C)[C@H](NC(=O)[C@H](CCC(=O)O)NC(=O)[C@H](C)NC(=O)[C@H](Cc1ccccc1)NC(=O)[C@H](CCC(=O)O)NC(=O)[C@H](C)N)C(=O)N[C@@H](CO)C(=O)N[C@@H](CCCCN)C(=O)O [Peptide P6] (H-AEFAEVSK-OH) | – | – | – | ≤ 5 |
| CC(C)C[C@H](NC(=O)[C@H](Cc1ccccc1)NC(=O)[C@H](CC(=O)O)NC(=O)[C@@H](NC(=O)[C@H](CC(C)C)NC(=O)[C@@H](N)[C@@H](C)O)C(C)C)C(=O)N[C@@H](CCCNC(=N)N)C(=O)O [Peptide P25] (H-TLVDFLR-OH) | N/A (N/A indicates solubility lower than 0.1 mg/mL) | N/A (N/A indicates solubility lower than 0.1 mg/mL) | – | – |
| CC(C)C[C@H](NC(=O)[C@H](CC(C)C)NC(=O)[C@H](CC(N)=O)NC(=O)[C@@H](NC(=O)[C@H](CO)NC(=O)[C@@H](NC(=O)[C@@H]1CCCN1C(=O)[C@@H](N)CCC(=O)O)[C@@H](C)O)C(C)C)C(=O)N[C@@H](C)C(=O)N[C@@H](CCC(=O)O)C(=O)O [Peptide P29] (H-EPTSVNLLAE-OH) | N/A (N/A indicates solubility lower than 0.1 mg/mL) | N/A (N/A indicates solubility lower than 0.1 mg/mL) | – | – |
| CC(C)C[C@H](NC(=O)CNC(=O)[C@H](CC(C)C)NC(=O)[C@H](C)NC(=O)[C@H](C)NC(=O)[C@H](CO)NC(=O)[C@H](C)NC(=O)[C@H](C)NC(=O)[C@H](CCC(N)=O)NC(=O)[C@H](CC(C)C)NC(=O)[C@@H](N)C(C)C)C(=O)O [Peptide P24] (H-VLQAASAALGL-OH) | N/A (N/A indicates solubility lower than 0.1 mg/mL) | N/A (N/A indicates solubility lower than 0.1 mg/mL) | – | – |
| CC(C)C[C@H](NC(=O)[C@H](CO)NC(=O)[C@H](CC(C)C)NC(=O)[C@H](CC(=O)O)NC(=O)[C@H](CC(C)C)NC(=O)[C@@H](N)Cc1ccccc1)C(=O)N[C@@H](CCCCN)C(=O)O [Peptide P18] (H-FLDLSLK-OH) | N/A (N/A indicates solubility lower than 0.1 mg/mL) | N/A (N/A indicates solubility lower than 0.1 mg/mL) | – | – |
| CC(C)C[C@H](NC(=O)[C@H](CC(=O)O)NC(=O)[C@@H](NC(=O)[C@@H](NC(=O)[C@@H](N)CC(C)C)[C@@H](C)O)C(C)C)C(=O)N[C@@H](Cc1ccccc1)C(=O)N[C@@H](CCCNC(=N)N)C(=O)O [Peptide P27] (H-LTVDLFR-OH) | N/A (N/A indicates solubility lower than 0.1 mg/mL) | N/A (N/A indicates solubility lower than 0.1 mg/mL) | – | – |
| CC(C)C[C@H](NC(=O)[C@H](CCC(N)=O)NC(=O)[C@@H]1CCCN1)C(=O)N[C@@H](CCC(=O)O)C(=O)N[C@@H](CC(C)C)C(=O)N[C@H](C(=O)N[C@H](C(=O)N1CCC[C@H]1C(=O)N[C@@H](CC(N)=O)C(=O)O)C(C)C)C(C)C [Peptide P22] (H-PQLELVVPN-OH) | N/A (N/A indicates solubility lower than 0.1 mg/mL) | N/A (N/A indicates solubility lower than 0.1 mg/mL) | – | – |
| CC(C)[C@H](NC(=O)[C@H](C)NC(=O)[C@@H](NC(=O)[C@H](C)NC(=O)[C@H](CO)NC(=O)CN)C(C)C)C(=O)NCC(=O)N[C@@H](CCCNC(=N)N)C(=O)O [Peptide P5] (H-GSAVAVGR-OH) | N/A (N/A indicates solubility lower than 0.1 mg/mL) | – | – | – |
| CC(C)C[C@H](NC(=O)CNC(=O)[C@H](Cc1ccccc1)NC(=O)[C@H](C)NC(=O)[C@H](CC(C)C)NC(=O)[C@H](C)NC(=O)[C@H](CC(C)C)NC(=O)[C@@H](N)[C@@H](C)O)C(=O)N[C@H](C(=O)N[C@@H](C)C(=O)O)[C@@H](C)O [Peptide P12] (H-TLALAFGLTA-OH) | – | N/A (N/A indicates solubility lower than 0.1 mg/mL) | – | – |
| CC(C)C[C@H](NC(=O)[C@H](CCC(N)=O)NC(=O)[C@H](CC(C)C)NC(=O)[C@@H](NC(=O)[C@@H](N)CC(C)C)C(C)C)C(=O)N[C@@H](CC(=O)O)C(=O)N[C@@H](CC(N)=O)C(=O)N[C@@H](C)C(=O)N[C@@H](CCCCN)C(=O)O [Peptide P13] (H-LVLQLDNAK-OH) | N/A (N/A indicates solubility lower than 0.1 mg/mL) | N/A (N/A indicates solubility lower than 0.1 mg/mL) | – | – |
| CC(C)C[C@H](NC(=O)[C@H](C)NC(=O)[C@@H](NC(=O)CNC(=O)[C@@H](NC(=O)[C@H](CO)NC(=O)[C@@H](NC(=O)[C@@H]1CCCN1C(=O)[C@@H](N)CCC(=O)O)[C@@H](C)O)C(C)C)C(C)C)C(=O)N[C@@H](C)C(=O)N[C@@H](CCC(=O)O)C(=O)O [Peptide P30] (H-EPTSVGVALAE-OH) | – | N/A (N/A indicates solubility lower than 0.1 mg/mL) | N/A (N/A indicates solubility lower than 0.1 mg/mL) | – |
| CC(C)C[C@H](NC(=O)[C@H](CCC(N)=O)NC(=O)[C@@H]1CCCN1)C(=O)N[C@@H](CCC(=O)O)C(=O)N[C@H](C(=O)N[C@@H](CC(C)C)C(=O)N[C@H](C(=O)N1CCC[C@H]1C(=O)N[C@@H](CC(N)=O)C(=O)O)C(C)C)C(C)C [Peptide P20] (H-PQLEVLVPN-OH) | N/A (N/A indicates solubility lower than 0.1 mg/mL) | N/A (N/A indicates solubility lower than 0.1 mg/mL) | – | – |
